Measured values: patent US10898483B2, “Methods for inducing an immune response by promoting premature termination codon read-through” (MOONSHOT PHARMA LLC, priority 2015, dated 2021)

Columns and labels:
[1] = system: MC38 tumor cells; test: MC38 subcutaneous tumor model in C57BL/6 mice, tumor volume by caliper; assay type: in vivo; parameters: Percent inhibition of tumor volume: concentration or dose not given beside the values; settings: for Percent inhibition of tumor volume: negative values indicate an increase in tumor volume; for Mean tumor volume: PTC124 20 mg/kg i.p. QD, antibodies 10 mg/kg (anti-CD8 200 ug/mouse) BIW x 3 weeks
Protocol: Animals: Female 6-8 week old (estimated age at inoculation) C57BL/6 mice were obtained from Shanghai Lingchang Bio-Technology Co. Ltd (LC, Shanghai, China). The animals were housed at 20˜26° C. with a 12 hours light and 12 hours darkness cycle.
Cell Culture: MC38 tumor cells were maintained in vitro as a monolayer culture in DMEM medium supplemented with 10% fetal bovine serum at 37° C. in an atmosphere of 5% CO2 in air. The tumor cells were routinely subcultured twice weekly. Cells in an exponential growth phase were harvested and counted for tumor inoculation.
Therapeutic compounds: Ataluren (PTC124) was obtained from Selleck Chemicals (Houston, Tex.). Anti-PD-1 and anti-CTLA-4 antibodies were obtained from BioXCell as was an anti-CD8 antibody.
Tumor Inoculation: Each mouse was inoculated subcutaneously at the right lower flank region with MC38 tumor cells (1×10^6) in 0.1 mL of PBS for tumor development. The treatments were started when the mean tumor size reaches approximately 50 mm^3. The date of tumor cell inoculation was denoted as day 0.
Group assignment: Before grouping and treatment, all animals were weighed and the tumor volumes measured using a caliper. Tumor volume was used as numeric parameter to randomize selected animals into specified groups in order to minimize systematic error. The grouping was performed by using StudyDirector™ software (Studylog Systems, Inc. CA, USA). One optimal randomization design (generated by Matched distribution) showing minimal group to group variation in tumor volume was selected for group allocation.
After tumor cell inoculation, the animals were checked daily for morbidity and mortality as well as any effects of tumor growth and treatments on normal behavior such as mobility, visual estimation of food and water consumption, body weight gain/loss, eye/hair matting and any other abnormal effect. Tumor volumes were measured twice weekly at least in two dimensions using a caliper, and the volume expressed in mm^3 using the formula: V=0.5 a×b^2 where a and b are the long and short diameters of the tumor, respectively.

[2] = system: normal stop codons; settings: cited from earlier work
[3] = system: intratumoral T-cell infiltrates (CD45+, CD3+, CD8+, and CD4+ cells); test: FACS analysis for intratumoral T-cell infiltrates; assay type: in vivo, C57BL/6 mice; settings: FIG. 5
Protocol: FACS analysis: Tumor cells were isolated from each treatment group and FACS analysis performed according to methods which are well known in the art.

[4] = phase-I clinical study in cystic fibrosis; cited from earlier work
[5] = system: CD3+ immune cells infiltrating tumor tissue; test: Immunohistochemistry of sectioned tumor tissue for immune cell infiltration; assay type: in vivo, C57BL/6 mice; settings: FIG. 4
Protocol: Immunohistochemistry (IHC): Formalin-fixed paraffin-embedded (FFPE) tissue from tumor samples were sectioned to 4 um. Antigen retrieval (AR) was conducted at 100° C., in EDTA buffer, at pH 9.0 for 20 min. Primary antibody (diluted with validated concentration), RT 60 min+ secondary antibody (ready-to-use), RT 60 min+Bond Polymer Refine Detection.

O=C(O)c1cccc(-c2noc(-c3ccccc3F)n2)c1 [PTC124, 3-[5-(2-Fluorophenyl)-1,2,4-oxadiazol-3-yl]benzoic acid]
Percent inhibition of tumor volume ([1]; Day 9): −0.96% | Mean tumor volume ([1]; Day 9 after inoculation (randomization)): 52.46 mm^3 | Mean tumor volume ([1]; Day 12): 72.34 mm^3 | Percent inhibition of tumor volume ([1]; Day 12): 13.94% | Mean tumor volume ([1]; Day 15): 128.58 mm^3 | Percent inhibition of tumor volume ([1]; Day 15): 1.20% | Mean tumor volume ([1]; Day 18): 231.26 mm^3 | Percent inhibition of tumor volume ([1]; Day 18): 19.87% | Mean tumor volume ([1]; Day 22): 388.94 mm^3 | Percent inhibition of tumor volume ([1]; Day 22): 18.64% | Mean tumor volume ([1]; Day 25): 617.86 mm^3 | Percent inhibition of tumor volume ([1]; Day 25): 22.82% | Mean tumor volume ([1]; Day 29): 988.37 mm^3 | Percent inhibition of tumor volume ([1]; Day 29): 21.47% | Mean tumor volume ([1]; Day 32): 1459.49 mm^3 | Percent inhibition of tumor volume ([1]; Day 32): 18.16% | Tumor inhibition (in words) ([1]; MC38 tumor-bearing C57BL/6 mice, Table 6, FIGS. 1-3): has tumor inhibition-promoting properties | Ribosomal read-through of normal stop codons [2]: does not induce ribosomal read-through of normal stop codons | Intratumoral T-cell infiltrates (CD45+, CD3+, CD8+, and CD4+ cells) by FACS [3]: increased intratumoral T-cell infiltrates | Read-through activity compared with aminoglycosides [4]: more efficient read-through activity than aminoglycosides | Tolerability [4]: generally well tolerated | CD3+ immune cells infiltrating tumor tissue (immunohistochemical analysis) [5]: significant numbers of CD3+ immune cells infiltrating tumor tissue
